Measured values taken from PubChem BioAssay (NCI).
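Grown in 96-well plates, cells were treated for 48 hours with each compound at five concentrations. Insufficient inhibition: endpoint recorded as highest concentration tested. GI50: concentration for 50% inhibition of growth. TGI: concentration producing complete growth inhibition.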

How the values were obtained:
Experiment in all cases: inhibition of tumour cell growth, NCI panel, 48 h
CCRF-CEM leukemia = tested on: CCRF-CEM leukemia
SF-295 CNS = tested on: SF-295 CNS
HL-60(TB) leukemia = tested on: HL-60(TB) leukemia
RXF 393 renal = tested on: RXF 393 renal
U251 CNS = tested on: U251 CNS
HCT-15 colon = tested on: HCT-15 colon
SW-620 colon = tested on: SW-620 colon
EKVX NSCLC = tested on: EKVX NSCLC
RPMI-8226 leukemia = tested on: RPMI-8226 leukemia

Row | SMILES | TGI (CCRF-CEM leukemia) | TGI (SF-295 CNS) | TGI (HL-60(TB) leukemia) | TGI (RXF 393 renal) | TGI (U251 CNS) | TGI (HCT-15 colon) | TGI (SW-620 colon) | TGI (EKVX NSCLC) | TGI (RPMI-8226 leukemia) | GI50 (CCRF-CEM leukemia) | GI50 (SF-295 CNS) | GI50 (HL-60(TB) leukemia) | GI50 (U251 CNS) | GI50 (HCT-15 colon) | GI50 (SW-620 colon) | GI50 (EKVX NSCLC) | GI50 (RPMI-8226 leukemia)
1 | C[N+]1=C(c2cccnc2/C=N/O)OCC1(C)C | > 100 µM | > 100 µM | > 100 µM | > 100 µM | > 100 µM | > 100 µM | > 100 µM | > 100 µM |  |  |  |  |  |  |  |  | 
2 | C#CCN(N=O)C(=O)NC(CCCCNC(=O)OCc1ccccc1)C(=O)OCc1ccccc1 (stereo not drawn) | 41.8 µM | > 100 µM | 37.6 µM | > 100 µM | 76.8 µM | 47.2 µM | 41 µM | 55.3 µM | 45.9 µM |  |  |  |  |  |  |  | 
3 | CC(Oc1cc2oc(=O)cc(-c3ccccc3)c2cc1Cl)C(=O)O (stereo not drawn) | > 100 µM | > 100 µM | > 100 µM | > 100 µM | > 100 µM |  | > 100 µM | > 100 µM |  |  |  |  |  |  |  |  | 
4 | CC1CC(C[N+](=O)[O-])CC2(C1)OCCO2 (stereo not drawn) | > 100 µM |  | > 100 µM | > 100 µM | > 100 µM | > 100 µM | > 100 µM |  | > 100 µM |  |  |  |  |  |  |  | 
5 | CCCCC(C(=O)C(=O)Nc1ccc(C)cc1C)C(=O)C(C)C (stereo not drawn) |  | > 100 µM | > 100 µM | > 100 µM | > 100 µM | > 100 µM | > 100 µM | > 100 µM | > 100 µM |  |  |  |  |  |  |  | 
6 | NC(CCSCC(F)(F)F)C(=O)O (stereo not drawn) | > 100 µM | > 100 µM | > 100 µM | > 100 µM | > 100 µM | > 100 µM | > 100 µM | > 100 µM |  |  |  |  |  |  |  |  | 
7 | O=C(CCc1nc(=S)[nH][nH]1)Nc1cc(Cl)ccc1Cl | > 100 µM | > 100 µM | > 100 µM |  | > 100 µM | > 100 µM | > 100 µM | > 100 µM | > 100 µM |  |  |  |  |  |  |  | 
8 | COC(=O)C(C(=O)C(=O)Nc1ccc(C)cc1)c1nc2ccc([N+](=O)[O-])cc2[nH]c1=O (stereo not drawn) | > 100 µM | > 100 µM | > 100 µM | > 100 µM | > 100 µM | > 100 µM | > 100 µM | > 100 µM |  |  |  |  |  |  |  |  | 
9 | COc1cc(/C=C/C(=O)c2cccc3ccccc23)cc(OC)c1OC | 7.27 µM | 22.2 µM | 4.31 µM | 7.93 µM | 18.8 µM |  | 7.32 µM | 28.7 µM |  |  |  |  |  |  |  |  | 
10 | O=C(NCCCCCCCCCCCCNC(=O)c1cnc2ccccc2n1)c1cnc2ccccc2n1 | > 100 µM | > 100 µM | > 100 µM | 88.6 µM | > 100 µM | > 100 µM | > 100 µM | > 100 µM | > 100 µM |  |  |  |  |  |  |  | 
11 | CC(=O)NNc1nc(C)c(C(=O)NNC(=O)C(=O)Nc2ccc(Cl)c([N+](=O)[O-])c2)s1 | 56.8 µM | > 100 µM | > 100 µM |  | > 100 µM | > 100 µM | > 100 µM | > 100 µM | > 100 µM |  |  |  |  |  |  |  | 
12 | C/C(=C1/N=C(c2cc([N+](=O)[O-])ccc2Cl)N(c2ccc(Br)cc2)C1=O)c1ccc(N(CCC#N)CCC#N)cc1C | 32.7 µM | > 100 µM | 36.3 µM | > 100 µM |  | 58.7 µM | 25.5 µM | > 100 µM | 77.2 µM |  |  |  |  |  |  |  | 
13 | COc1ccc(C(c2ccccc2C(=O)O)c2ccc(OC)c3ccccc23)c2ccccc12 | > 100 µM | 25.6 µM | 38.1 µM |  | 26.6 µM | 28.8 µM | 44.4 µM | 49.8 µM | 20.8 µM |  |  |  |  |  |  |  | 
14 | CC(=O)OC1C[C@H]2C(OC(=O)c3ccccc3)C3C4(OC(C)=O)COC4C[C@H](OC(C)=O)[C@@]3(C)C(OC(C)=O)[C@H](OC(C)=O)C(=C1C)C2(C)C (stereo partly drawn) | > 100 µM | > 100 µM | 72 µM | 49.3 µM |  | > 100 µM | > 100 µM | > 100 µM | > 100 µM |  |  |  |  |  |  |  | 
15 | COc1cccc(/C=N/[N-]C(=O)c2ccncc2)c1[O-].[Mn+2].[OH3+] | 6.26 µM | > 100 µM | 4.19 µM |  | > 100 µM | > 100 µM | > 100 µM | > 100 µM | > 100 µM | 1.8 µM | 16.2 µM | 1.45 µM | 5.45 µM | 4.14 µM | 4.42 µM | 9.25 µM | 6 µM
16 | Cc1noc2cccc(O)c12 | > 100 µM | > 100 µM | > 100 µM | > 100 µM | > 100 µM | > 100 µM | > 100 µM | > 100 µM |  |  |  |  |  |  |  |  | 
17 | CC(=O)OCCOCn1c2ccccc2c2c3c(c4c5ccccc5n(COCCOC(C)=O)c4c21)C(=O)N(Cc1ccccc1)C3=O | > 100 µM |  | > 100 µM | > 100 µM | > 100 µM | > 100 µM | > 100 µM | > 100 µM | > 100 µM |  |  |  |  |  |  |  | 
